Measurements as given in patent publication US20050163773A1, “Methods and pharmaceutical compositions for dopaminergic modulation of t-cell adhesion and activity” (priority 2001, published 2005).
Entries after “also recorded” stand apart in the source; their conditions may differ.

How the values were obtained:
[1] = tested on: Dopamine receptors on normal human T-cells; settings: for blocking of DPAT-induced T-cell adhesion to fibronectin: DPAT 10 nM
Experimental: Non-radioactive assessment of T-cell binding was performed as described in Material and Methods, results presented as the mean ±OD of bound T-cells from 4-6 wells.
The treated cells were suspended in adhesion medium and incubated (30 min., 37° C.) in a humidified 10% CO2 incubator. The cells were seeded in the fibronectin-coated microtiter plates, and the plates were then returned to the incubator for an additional 30 min. incubation. The amount of T-cell adhesion was determined as above.

normal human T-cells = test: T-cell adhesion assay (adhesion of human T-cells to fibronectin); settings: dose dependence, human T-cells
Experimental: T-cell adhesion assay: In the majority of the experiments, adhesion of purified normal human T-cells to fibronectin was assayed with radioactively labeled T-cells as follows: normal human T-cells, purified from a fresh blood sample, were labeled with Na2[^51CrO4], washed, and resuspended in adhesion medium (RPMI-1640 supplemented with 2% BSA, 1 mM Ca^++, 1 mM Mg^++, 1% sodium pyruvate, 1% glucose, and 1% HEPES buffer). The cells were then pre-treated (30 min., 37° C.) with DPAT, and added to fibronectin coated (1 μg/well; Sigma Chemicals, St. Louis, Mo.) microtiter flat-bottomed 96 well plates (1×10^5 cells/100 μl/well). The plates were placed in a humidified incubator (37° C., 30 min., 10% CO2), and than washed thoroughly several times with PBS, to remove non-adherent T-cells. The adherent T-cells were lysed with 1% Tween 20 in 1N NaOH, and the radioactivity in the resulting supernatants was determined in a γ-counter. For each experimental group, results were expressed as the mean CPM±SD of bound T-cells from quadruplicate wells. DPAT-treated T-cell adhesion to BSA-(rather than fibronectin) coated wells, and untreated T-cell adhesion to fibronectin coated wells, were the standard negative controls.
Non-radioactive T-cell adhesion assays: Alternatively, T-cell adhesion assays were performed with non-radioactively labeled cells, differing from the above protocol only in the final detection steps which were performed as follows: After the final washing of the adhesion plates and removal of the non adherent cells, the microtiter wells were supplemented with lysis and substrate solution (60 μl/well of: 0.5% Triton X-100 in water mixed with an equal volume of 7.5 mM p-nitrophenol-N-acetyl-β-D-glucosaminide, (Sigma Chemicals, St. Louis, Mo.) in 0.1M citrate buffer pH=5.0). The plates were then incubated (˜18hr) in a CO2-free 37° C. incubator, supplemented with stop solution (90 μl/well of 50 mM glycine, (Sigma Chemicals, St. Louis, Mo.) pH=10.4 containing 5 mM EDTA), and the optical density was measured at 405 nm in a standard Elisa reader.

[2] = tested on: normal human peripheral T-cells
[3] = tested on: normal human peripheral T-cells; settings: Dopamine 10^−8 M, 48 hours
TNFα secretion = TNFα secretion by human peripheral T-cells (sandwich ELISA); assay type: cell-based
Source text: (§1) The results are expressed as pg/ml.
(§2) The results are expressed as pg/mi.
as §1, §1, §1

IL-10 secretion [4] = settings: Dopamine 10^−8 M, 72 hours
IL-10 secretion [5] = test: IL-10 secretion by human peripheral T-cells (sandwich ELISA); assay type: cell-based; settings: for inhibition of Dopamine-induced IL-10 secretion by receptor-specific antagonists: L-741,626 10^−7 M, U-Mal 10^−6 M, L-741,741 10^−6 M
Source text: The results are expressed as pg/ml IL-10. […] Immunostaining is with intracellular anti-IL-10 FITC conjugated (FL-1) and anti-CD4 PE conjugated (FL-2) antibodies, as described in Materials and Methods hereinbelow.
as §2, §1, §1, §1

IL-4 secretion = settings: Dopamine 10^−8 M, 24 hours
[6] = tested on: oxazalone-sensitized T-cells; test: Passively transferred delayed type hypersensitivity (DTH) with T-cells treated ex vivo; assay type: in vivo, mouse
Experimental: Lymph nodes were removed from oxazalone-sensitized mice, and the T-cell suspension was exposed ex-vivo to increasing concentrations of DPAT (FIG. 9A, DPAT […]-DPAT 10^−6M) as described for FIG. 8 hereinabove. Control T-cells were incubated with medium only (untreated T-cells). The T-cells were then washed, resuspended in PBS and injected intravenously into naive syngeneic mice. The ears of the recipient mice were than challenged with oxazalone, and the degree of ear swelling was measured by micrometer 24 hr later. DTH is expressed as the mean ±SD of ear swelling in units of 10^−2 mm. […] Oxazalone-sensitized T-cells were incubated ex vivo for one hour with either DPAT (10^−8 M, +DPAT) or U-Mal (10^−7 M, +U-Mal), or both. The T-cells were then washed, resuspended in PBS, injected intravenously into normal recipients, and DTH measured as described hereinabove. […] FIGS. 9A and 9B represent two individual experiments, each experimental group consisting of 8 mice.
Passively transferred delayed type hypersenisitivity (DTH): Groups of 6-8 BALB/c female mice (The Jackson Laboratory, Bar Harbor, Mass., USA) were sensitized on the abdominal skin with 200 μt of 2% oxazalone dissolved in acetone/olive oil [4:1 vol/vol)] applied topically. Five days later, lymph nodes were removed from the sensitized mice, and a cell suspension prepared. The cells (3-5×10^6/ml in RPMI, no additional supplements) were than added for […] incubation ([…]. 37° C., 10% CO2 humidified incubator) with either DPAT, U-Mal, or both (in the latter combination the antagonist added 5 minutes before the agonist). The cells were than washed, resuspended in PBS, and injected IV (40×10^6 /mouse) into normal BALB/c recipients. Immediately afterwards the recipient mice were […] with 10 μl of 2% oxazalone in acetone/olive oil, applied topically to each side of the ear. A constant area of the ear was measured immediately before challenge and 24 hr after the challenge with a Mitutoyo engineer's micrometer. The individual measuring the ear swelling was unaware of the identity of the mice groups. The DTH reaction is expressed as the mean±SD (for each group) of the increment of ear swelling 24 hours after inoculation of the oxazalone-sensitized T-cells, in units of 10^−2 mm.

[7] = tested on: SJL/J anti PLP 139-151 T-cells; test: Experimental autoimmune encephalomyelitis (EAE) induced by encephalitogenic T-cells treated ex vivo; assay type: in vivo, mouse; settings: U-Mal 10^−7 M, 5 minutes before DPAT
α4β1 and α5β1 integrins = test: Inhibition of induced T-cell adhesion to fibronectin with specific integrin blockers; assay type: cell-based, human; settings: for blocking of DPAT-induced T-cell adhesion to fibronectin by integrin blockers: DPAT 10 nM; for blocking of DPAT-induced T-cell adhesion to fibronectin by integrin blockers / blocking of Dopamine-induced T-cell adhesion to fibronectin by integrin blockers: mAbs 15-25 μg/ml, peptides 50 μg/ml; for blocking of Dopamine-induced T-cell adhesion to fibronectin by integrin blockers: Dopamine 10 nM; for inhibition of PMA-induced T-cell adhesion to fibronectin by integrin blockers: PMA as positive control
Experimental: The results are presented as the mean ±SD CPM of bound T-cells from quadruplicate wells. One experiment, representative of two, is presented for each of the three inducers of T-cell binding.
The treated cells were seeded in fibronectin-coated microtiter plates.

Molecule: CC(C)(C)[C@]1(O)CCN2C[C@H]3c4ccccc4CCc4cccc(c43)[C@@H]2C1 [Butaclamol]
- blocking of DPAT-induced T-cell adhesion to fibronectin [1]: without effect

Molecule: NCCc1ccc(O)c(O)c1 [Dopamine]
- optimum concentration for induction of T-cell adhesion to fibronectin (normal human T-cells): 10 nM
- cellular death in normal T-cells [2]: induces cellular death
- r-RNA bands in total RNA (loss of viability) ([2]; Dopamine 10^−3): near total absence of r-RNA bands
- increase in the number of IL-10 producing T-helper cells [3]: 9%
- Dopamine concentration inducing maximal TNFα secretion (TNFα secretion; 24 hours): 10^−4 M
- Dopamine concentration with significant effect on TNFα secretion (TNFα secretion; 24 hours): ≥ 10^−8 M
- TNFα secretion at excess Dopamine (TNFα secretion; Dopamine 10^−3 M): drastic reduction in cytokine secretion
- TNF-α release (TNFα secretion; Dopamine 10^−8 M, 24 hours, no antigen stimulation): induced a strong release of TNF-α
- IL-10 secretion, cloned resting Th0 cells (IL-10 secretion [4]): strong induction
- IL-10 secretion, cloned resting Th1 cells ("forbidden" cytokine) (IL-10 secretion [4]): secreting significant amounts of IL-10
- IL-10 secretion, cloned resting Th2 cells (IL-10 secretion [4]): strong induction
- Dopamine concentration inducing maximal IL-10 secretion (IL-10 secretion [5]; 72 hours): 10^−4 M
- Dopamine concentration with significant effect on IL-10 secretion (IL-10 secretion [5]; 72 hours): ≥ 10^−8 M
- increase in IL-10 secretion (IL-10 secretion [5]; Dopamine 10 nM, 72 hours): 2.5 fold
- IL-10 secretion at excess Dopamine (IL-10 secretion [5]; Dopamine 10^−3 M): drastic reduction in cytokine secretion
- time of maximal IL-10 secretion (IL-10 secretion [5]; Dopamine 10^−8 M): 72 h
- IL-10 release (IL-10 secretion [5]; Dopamine 10^−8 M, 72 hours, no antigen stimulation): induced a strong release of IL-10
- IL-4 secretion (IL-4 secretion): but not IFN-γ (FIG. 11B) or IL-4

Molecule: OC1(c2ccc(Cl)cc2)CCN(Cc2c[nH]c3ccccc23)CC1 [L-741,626]
- inhibition of Dopamine-induced IL-10 secretion by receptor-specific antagonists (IL-10 secretion [5]; Dopamine 10^−8 M, 72 hours): inhibited by the D2

Molecule: Oc1cc2c(cc1O)C(c1ccccc1)CNCC2 (centres unmarked) [SKF 38393]
- induction of TNFα secretion by receptor-specific Dopamine agonists (TNFα secretion; agonist 10^−7 M, 24 hours): induced by D1

Molecule: CCCN(CCC)C1Cc2cc(OC)c(OC)cc2C1.O=C(O)/C=C\C(=O)O [U-Mal, U-99194A maleate]
- effect on DTH by itself ([6]; U-Mal 10^−7 M alone): no effect by itself
- effect of pre-treatment on DPAT suppression of DTH ([6]; U-Mal 10^−7 M, 5 minutes before DPAT 10^−8 M): near total block of protection; also recorded: prevented
- blocking of DPAT-induced T-cell adhesion to fibronectin [1]: succeeded in blocking
- independent effect on T-cell adhesion to fibronectin ([1]; antagonist alone, data not shown): no independent effect
- toxic effects on the human T-cells ([1]; data not shown): no toxic effects
- effect of pre-treatment on the DPAT suppressive effect in EAE [7]: prevented
- inhibition of Dopamine-induced TNFα secretion by receptor-specific antagonists (TNFα secretion; Dopamine 10^−8 M, 24 hours, L-741,626 10^−7 M, U-Mal 10^−6 M, L-741,741 10^−6 M): inhibited by D3
- inhibition of Dopamine-induced IL-10 secretion by receptor-specific antagonists (IL-10 secretion [5]; Dopamine 10^−8 M, 72 hours): inhibited by the D2 and D3

Molecule: gly-arg-gly-asp-ser (GRGDS) [RGD peptide]
- blocking of DPAT-induced T-cell adhesion to fibronectin by integrin blockers (α4β1 and α5β1 integrins): effectively blocked
- blocking of Dopamine-induced T-cell adhesion to fibronectin by integrin blockers (α4β1 and α5β1 integrins): effectively blocked
- inhibition of PMA-induced T-cell adhesion to fibronectin by integrin blockers (α4β1 and α5β1 integrins): inhibition

Molecule: gly-arg-gly-glu-ser (GRGESP) [RGE-containing peptide, non-relevant RGE-containing control peptide]
- blocking of DPAT-induced T-cell adhesion to fibronectin by integrin blockers (α4β1 and α5β1 integrins): No significant effect
- blocking of Dopamine-induced T-cell adhesion to fibronectin by integrin blockers (α4β1 and α5β1 integrins): No significant effect
- inhibition of PMA-induced T-cell adhesion to fibronectin by integrin blockers (α4β1 and α5β1 integrins): insensitivity
